Reference: US9890185B2, “Urea derivatives useful as kinase inhibitors” (Respivert Limited, priority 2013, dated 2018)
pIC50: −log10 of the molar value.

What was measured:
[1] = molecular target: p38 MAPKα isoform (MAPK14) (Homo sapiens (Human), UniProt Q16539); assay: p38 MAPKα enzyme inhibition (FRET, Z-LYTE, Method 2); type: biochemical
Description: (§1) The enzyme inhibitory activities of compounds disclosed herein are determined by FRET using synthetic peptides labelled with both donor and acceptor fluorophores (Z-LYTE, Invitrogen Ltd., Paisley, UK).
The following two assay variants can be used for determination of p38 MAPKα inhibition.
The inhibitory activities of test compounds against the p38 MAPKα isoform (MAPK14: Invitrogen), are evaluated indirectly by determining the level of activation/phosphorylation of the down-stream molecule, MAPKAP-K2. The p38 MAPKα protein (80 ng/mL, 2.5 μL) is mixed with the test compound (2.5 μL of either 4 μg/mL, 0.4 μg/mL, 0.04 μg/mL or 0.004 μg/mL) for 2 hr at RT. […] The mixture is incubated for 1 hr at RT. Development reagent (protease, 5 μL) is added for 1 hr prior to detection in a fluorescence microplate reader (Varioskan® Flash, ThermoFisher Scientific).
This method follows the same steps as Method 1 above, but utilises a higher concentration of the p38 MAPKα protein (2.5 μL of 200 ng/mL protein instead of 2.5 μL of 80 ng/mL protein) for mixing with the test compound.
(§2) In all cases, the site-specific protease cleaves non-phosphorylated peptide only and eliminates the FRET signal. Phosphorylation levels of each reaction are calculated using the ratio of coumarin emission (donor) over fluorescein emission (acceptor), for which high ratios indicate high phosphorylation and low ratios indicate low phosphorylation levels. The percentage inhibition of each reaction is calculated relative to non-inhibited control and the 50% inhibitory concentration (IC50 value) is then calculated from the concentration-response curve.

[2] = molecular target: c-Src (Homo sapiens (Human), UniProt P12931); assay: c-Src enzyme inhibition (FRET, Z-LYTE); type: biochemical
c-Src, sequence (P12931 whole entry, looked up): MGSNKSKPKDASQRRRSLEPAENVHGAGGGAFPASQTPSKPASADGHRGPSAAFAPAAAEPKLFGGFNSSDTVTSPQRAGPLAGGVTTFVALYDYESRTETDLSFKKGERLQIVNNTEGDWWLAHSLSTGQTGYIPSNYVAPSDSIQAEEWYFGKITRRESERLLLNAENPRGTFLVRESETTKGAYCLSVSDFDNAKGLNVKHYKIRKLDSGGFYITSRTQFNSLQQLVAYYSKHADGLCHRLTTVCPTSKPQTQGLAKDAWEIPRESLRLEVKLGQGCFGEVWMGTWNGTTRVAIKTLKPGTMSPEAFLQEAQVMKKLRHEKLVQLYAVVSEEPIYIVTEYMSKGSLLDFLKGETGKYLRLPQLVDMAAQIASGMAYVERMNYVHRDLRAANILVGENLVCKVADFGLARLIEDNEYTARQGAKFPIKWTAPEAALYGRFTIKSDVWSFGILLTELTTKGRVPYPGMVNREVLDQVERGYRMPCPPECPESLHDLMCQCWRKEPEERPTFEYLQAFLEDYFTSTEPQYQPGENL
Description: as §1
(§3) The inhibitory activities of compounds of the invention against c-Src and Syk enzymes (Invitrogen), are evaluated in a similar fashion to that described hereinabove. The relevant enzyme (3000 ng/mL or 2000 ng/mL respectively, 2.5 μL) is incubated with the test compound (either 4 μg/mL, 0.4 μg/mL, 0.04 μg/mL, or 0.004 μg/mL, 2.5 μL each) for 2 hr at RT. The FRET peptides (8 μM, 2.5 μL), and appropriate ATP solutions (2.5 μL, 800 μM for c-Src, and 60 μM ATP for Syk) are then added to the enzymes/compound mixtures and incubated for 1 hr. Development reagent (protease, 5 μL) is added for 1 hr prior to detection in a fluorescence microplate reader (Varioskan® Flash, ThermoFisher Scientific).
as §2

[3] = molecular target: Syk (Homo sapiens (Human), UniProt P43405); assay: Syk enzyme inhibition (FRET, Z-LYTE); type: biochemical
Description: as §1, §3, §2

[4] = molecular target: GSK 3α (Homo sapiens (Human), UniProt P49840); assay: GSK 3α enzyme inhibition (FRET, Z-LYTE, Method 2); type: biochemical; conditions: read-out: IC50 Values for Enzyme Inhibition, GSK3α
GSK 3α, sequence (P49840 whole entry): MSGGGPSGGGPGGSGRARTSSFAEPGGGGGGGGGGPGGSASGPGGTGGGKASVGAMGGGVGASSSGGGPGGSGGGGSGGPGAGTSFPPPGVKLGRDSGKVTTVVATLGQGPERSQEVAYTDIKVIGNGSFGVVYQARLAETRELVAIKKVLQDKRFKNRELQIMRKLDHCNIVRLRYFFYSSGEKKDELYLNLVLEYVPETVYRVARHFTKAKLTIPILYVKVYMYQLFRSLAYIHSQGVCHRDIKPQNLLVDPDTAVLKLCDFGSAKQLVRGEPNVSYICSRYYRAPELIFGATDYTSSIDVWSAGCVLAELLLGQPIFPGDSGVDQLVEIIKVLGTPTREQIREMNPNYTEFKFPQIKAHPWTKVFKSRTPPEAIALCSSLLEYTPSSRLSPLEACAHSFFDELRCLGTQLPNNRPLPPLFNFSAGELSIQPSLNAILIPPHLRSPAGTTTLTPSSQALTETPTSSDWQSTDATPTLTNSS
How it was run: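 Phosphorylation of a dual-labelled synthetic peptide by human GSK3α is read as a coumarin/fluorescein ratio after protease development. Compound stocks run 4 to 0.004 μg/mL, and ATP stock is 40 μM.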

[5] = tested on: PBMCs; assay: LPS-induced IL-8 release in PBMC cells (assay b); type: cell-based, human; conditions: Homo sapiens, PBMC; LPS-stimulated PBMCs; read-out: IC50 Values for Inhibition of Cytokine Release, PBMCs IL-8
How it was run: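 Cytokines (TNFα, IL-8) in supernatants were quantified by sandwich ELISA after a 24 h challenge with 1 ng/mL E. coli LPS at 37° C, 5% CO2. Healthy-donor PBMCs had been exposed to compound for 2 h beforehand. IC50 values were fitted from the concentration-response curves.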

[6] = tested on: PBMCs; assay: IL-2 release in CD3/CD28 stimulated PBMC cells (assay c); type: cell-based; conditions: Homo sapiens, read-out: IC50 Values for Inhibition of Cytokine Release, PBMCs IL-2
Description: (§4) PBMCs from healthy subjects are separated from whole blood using a density gradient (Lymphoprep, Axis-Shield Healthcare). Cells are added to a 96 well plate pre-coated with a mixture of CD3/CD28 monoclonal antibodies (0.3 μg/mL eBioscience and 3 μg/mL BD Pharmingen respectively). Compound at the desired concentration is then added to the wells and the plate left for 3 days under normal tissue culture conditions. Supernatants are harvested and IL-2 and IFN gamma release determined by Sandwich ELISA (Duo-set, R&D System). The IC50 is determined from the dose response curve.

[7] = tested on: PBMCs; assay: IFN gamma release in CD3/CD28 stimulated PBMC cells (assay c); type: cell-based; conditions: Homo sapiens, read-out: IC50 Values for Inhibition of Cytokine Release, PBMCs IFNγ
Description: as §4

[8] = tested on: d-U937 cells; assay: Accumulation of β catenin in d-U937 cells (assay m); type: cell-based, human; conditions: percentage relative to Reference Compound at 1 μg/mL
Description: U937 cells, a human monocytic cell line, are differentiated into macrophage-type cells by incubation with PMA; (100 ng/mL) for between 48 to 72 hr. The cells are then incubated with either final concentrations of test compound or vehicle for 18 hr. The induction of β-catenin by the test compounds is stopped by replacing the media with 4% formaldehyde solution. Endogenous peroxide activity is neutralised by incubating with quenching buffer (100 μL, 0.1% sodium azide, 1% H2O2 in PBS with 0.05% Tween-20) for 20 min. The cells are washed with washing buffer (200 μL; PBS containing 0.05% Tween-20) and incubated with blocking solution (200 μL; 5% milk in PBS) for 1 hr, re-washed with washing buffer (200 μL) and then incubated overnight with anti-β-catenin antibody solution (50 μL) in 1% BSA/PBS (BD, Oxford, UK).
After washing with washing buffer (3×200 μL; PBS containing 0.05% Tween-20), cells are incubated with an HRP-conjugated secondary antibody solution (100 μL) in 1% BSA/PBS (Dako, Cambridge, UK) and the resultant signal is determined colourimetrically (OD: 450 nm with a reference wavelength of 655 nm) using TMB substrate (50 μL; R&D Systems, Abingdon, UK). This reaction is stopped by addition of 1N H2SO4 solution (50 μL). Cells are then washed with washing buffer and 2% crystal violet solution (50 μL) is applied for 30 min. After washing with washing buffer (3×200 μL), 1% SDS (100 μL) is added to each well and the plates are shaken lightly for 1 hr prior to measuring the absorbance at 595 nm (Varioskan® Flash, Thermo-Fisher Scientific).
The measured OD450-655 readings are corrected for cell number by dividing the OD450-655 by the OD595 readings.

[9] = tested on: PBMCs; assay: Cell mitosis assay in PBMCs (assay g); type: cell-based; conditions: Homo sapiens, PBMC, test compound 5 μg/mL
Description: Peripheral blood mononucleocytes (PBMCs) from healthy subjects are separated from whole blood (Quintiles, London, UK) using a density gradient (Histopaque®-1077, Sigma-Aldrich, Poole, UK). The PBMCs (3 million cells per sample) are subsequently treated with 2% PHA (phytohaemagglutinin, Sigma-Aldrich, Poole, UK) for 48 hr, followed by a 20 hr exposure to varying concentrations of test compounds. At 2 hr before collection, PBMCs are treated with demecolcine (0.1 μg/mL; Invitrogen, Paisley, UK) to arrest cells in metaphase. To observe mitotic cells, PBMCs are permeabilised and fixed by adding Intraprep (50 μL; Beckman Coulter, France), and stained with anti-phospho-histone 3 (0.26 ng/L; #9701; Cell Signalling, Danvers, Mass.) and propidium iodide (1 mg/mL; Sigma-Aldrich, Poole, UK) as previously described (Muehlbauer P. A. and Schuler M. J., Mutation Research, 2003, 537:117-130). Fluorescence is observed using an ATTUNE flow cytometer (Invitrogen, Paisley, UK), gating for lymphocytes. The percentage inhibition of mitosis is calculated for each treatment relative to vehicle (0.5% DMSO) treatment.

p38 MAPKα isoform (MAPK14), sequence (Q16539 whole entry, canonical isoform): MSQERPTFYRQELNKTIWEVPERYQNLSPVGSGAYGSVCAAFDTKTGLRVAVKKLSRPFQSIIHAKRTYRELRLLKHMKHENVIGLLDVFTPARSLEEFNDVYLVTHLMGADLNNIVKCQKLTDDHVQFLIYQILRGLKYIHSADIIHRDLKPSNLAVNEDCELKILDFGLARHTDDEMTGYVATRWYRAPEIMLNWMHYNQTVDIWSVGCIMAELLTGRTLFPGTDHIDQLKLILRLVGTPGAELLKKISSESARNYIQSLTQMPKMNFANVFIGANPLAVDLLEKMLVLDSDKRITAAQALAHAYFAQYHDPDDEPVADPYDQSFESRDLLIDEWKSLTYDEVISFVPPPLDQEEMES

Row | Compound | pIC50 [1] | pIC50 [2] | pIC50 [3] | pIC50 [4] | pIC50 [5] | pIC50 [6] | pIC50 [7] | % β-catenin induction ([8]; test compound 1 μg/mL) | % β-catenin induction ([8]; test compound 5 μg/mL) | % β-catenin induction ([8]; test compound 10 μg/mL) | inhibition at 5 µg/mL [9]
1 | COc1c(NC(=O)Nc2ccc(Oc3ccnc(Nc4ccccc4)c3)c3ccccc23)cc(C(C)(C)C)cc1OCP(C)(C)=O [15(e), 1-(5-(tert-butyl)-3-((dimethylphosphoryl)methoxy)-2-methoxyphenyl)-3-(4-((2-(phenylamino)pyridin-4-yl)oxy)naphthalen-1-yl)urea] | 6.44 | 6.92 | 6.26 | 5.54 | 8.33 | 7.59 | 7.22 | 2.0% | 20.5% | 32.5% | –
2 | COc1c(NC(=O)Nc2ccc(Oc3ccnc(Nc4cnccn4)n3)c3ccccc23)cc(C(C)(C)C)cc1P(C)(C)=O [15(q), 1-(5-(tert-butyl)-3-(dimethylphosphoryl)-2-methoxyphenyl)-3-(4-((2-(pyrazin-2-ylamino)pyrimidin-4-yl)oxy)naphthalen-1-yl)urea] | – | 6.68 | < 5.79 | 5.46 | 8.21 | – | 5.79 | 5.0% | 9.5% | 2.5% | 12.9%
3 | COc1c(CC(N)=O)cc(C(C)(C)C)cc1NC(=O)Nc1ccc(Oc2ccnc(Nc3cccc(OC(F)F)c3)c2)c2ccccc12 [38(s), 2-(5-(tert-Butyl)-3-(3-(4-((2-((3-(difluoromethoxy)phenyl)amino)pyridin-4-yl)oxy)naphthalen-1-yl)ureido)-2-methoxyphenyl)acetamide] | – | 6.44 | < 5.82 | < 4.82 | 8.28 | 6.72 | 7.57 | – | – | – | –
4 | COc1cc(Nc2cc(Oc3ccc(NC(=O)Nc4cc(C(C)(C)C)cc(S(C)(=O)=O)c4OC)c4ccccc34)ccn2)ccc1C(=O)O [Example 80, 4-((4-((4-(3-(5-(tert-Butyl)-2-methoxy-3-(methylsulfonyl)phenyl)ureido)naphthalen-1-yl)oxy)pyridin-2-yl)amino)-2-methoxybenzoic acid] | – | – | – | – | 8.35 | 6.38 | 8.18 | – | – | – | –

Continued, in another order:

Row | pIC50 [1] | pIC50 [2] | pIC50 [3] | pIC50 [4] | Compound | pIC50 [5] | pIC50 [6] | pIC50 [7] | % β-catenin induction ([8]; test compound 1 μg/mL) | % β-catenin induction ([8]; test compound 5 μg/mL) | % β-catenin induction ([8]; test compound 10 μg/mL) | inhibition at 5 µg/mL [9]
5 | – | – | – | 5.94 | COc1cc(Nc2cc(Oc3ccc(NC(=O)Nc4cc(C(C)(C)C)cc(CP(C)(C)=O)c4OC)c4ccccc34)ccn2)cc(C(=O)NCCN2CCOCC2)c1 [38(v), 3-((4-((4-(3-(5-(tert-Butyl)-3-((dimethylphosphoryl)methyl)-2-methoxyphenyl)ureido)-naphthalen-1-yl)oxy)pyridin-2-yl)amino)-5-methoxy-N-(2-morpholinoethyl)benzamide] | 8.77 | 7.07 | 8.09 | – | – | – | –
6 | 7.47 | 8.05 | 7.52 | 6.48 | COCCOCCOCCOc1cc(Nc2nccc(Oc3ccc(NC(=O)Nc4cc(C(C)(C)C)cc(P(C)(C)=O)c4OC)c4ccccc34)n2)cc(OC)c1 [Example 1, 1-(5-(tert-Butyl)-3-(dimethylphosphoryl)-2-methoxyphenyl)-3-(4-((2-((3-methoxy-5-(2-(2-(2-methoxyethoxy)ethoxy)ethoxy)phenyl)amino)pyrimidin-4-yl)oxy)naphthalen-1-yl)urea] | 8.96 | 7.21 | 8.42 | – | – | – | –
7 | 7.25 | 7.37 | 6.64 | 5.80 | COc1cncc(Nc2cc(Oc3ccc(NC(=O)Nc4cc(C(C)(C)C)cc(P(C)(C)=O)c4OC)c4ccccc34)ccn2)c1 [Example 34, 1-(5-(tert-Butyl)-3-(dimethylphosphoryl)-2-methoxyphenyl)-3-(4-((2-((5-methoxypyridin-3-yl)amino)pyridin-4-yl)oxy)naphthalen-1-yl)urea] | 8.92 | – | – | 2.0% | 28.5% | 23.0% | 81.1%
8 | 7.51 | 7.57 | 7.27 | 5.97 | COc1c(NC(=O)Nc2ccc(Oc3ccnc(Nc4ccn(C)n4)c3)c3ccccc23)cc(C(C)(C)C)cc1P(C)(C)=O [Example 36, 1-(5-(tert-Butyl)-3-(dimethylphosphoryl)-2-methoxyphenyl)-3-(4-((2-((1-methyl-1H-pyrazol-3-yl)amino)pyridin-4-yl)oxy)naphthalen-1-yl)urea] | 8.96 | – | – | 17.5% | 84.5% | 27.5% | 86.6%
